From EPA's ToxRefDB 2

Assays:
rat [1] = conditions: Sub-acute repeat dose toxicity, sprague dawley, Oral, Gavage/Intubation, dose end: 13 day, group: systemic
dog [2] = conditions: Sub-acute repeat dose toxicity; beagle; Oral; Gavage/Intubation; dose end: 29 day; group: systemic; systemic / in life observation / clinical signs / defecation (diarrhea) + systemic / in life observation / clinical signs / emesis + …
rat [3] = conditions: Sub-acute repeat dose toxicity, sprague dawley, Oral, Gavage/Intubation, dose end: 29 day, group: systemic
dog [4] = conditions: Sub-acute repeat dose toxicity, beagle, Oral, Gavage/Intubation, dose end: 7 day, group: systemic
rat [5] = conditions: Multigenerational reproductive toxicity study, other, Oral, Gavage/Intubation, dose end: 2 generation
mouse [6] = conditions: Subchronic oral toxicity in rodents, b6c3f1, Feed, dose end: 13 week, group: systemic
mouse [7] = conditions: Carcinogenicity, b6c3f1, Oral, Feed, dose end: 2 year, group: systemic
rat [8] = conditions: Combined chronic toxicity/carcinogenicity, fischer, Oral, Feed, dose end: 2 year, group: systemic
rat [9] = conditions: Multigenerational reproductive toxicity study, sprague dawley, Oral, Gavage/Intubation, dose end: 2 generation
rat [10] = conditions: Subchronic oral toxicity in rodents, fischer, Feed, dose end: 13 week
rat [11] = conditions: Developmental neurotoxicity study, sprague dawley, Oral, Gavage/Intubation, dose end: 80 PND, group: cannot be grouped
rat [12] = conditions: Chronic toxicity; fischer; Oral; Feed; dose end: 130 week; group: systemic; systemic / pathology microscopic / liver / hypertrophy + systemic / pathology microscopic / liver / necrosis
mouse [13] = conditions: Chronic toxicity, [Not Reported], Oral, Feed, dose end: 104 week, group: systemic
rabbit = conditions: Prenatal developmental toxicity study, chinchilla, Oral, Gavage/Intubation, dose end: 18 GD
rat [14] = conditions: Combined chronic toxicity/carcinogenicity, wistar, Oral, Feed, dose end: 24 month, group: systemic
rat [15] = conditions: Multigenerational reproductive toxicity study, wistar, Oral, Feed, dose end: 2 generation
dog [16] = conditions: Chronic toxicity; beagle; Oral; Feed; dose end: 52 week; group: systemic; systemic / clinical chemistry / cholesterol / cholesterol + systemic / clinical chemistry / cytochrome p450, nos / cytochrome p450, nos
mouse [17] = conditions: Carcinogenicity, b6c3f1, Oral, Feed, dose end: 24 month, group: systemic
rat [18] = conditions: Prenatal developmental toxicity study, other, Oral, Gavage/Intubation, dose end: 15 GD
rat [19] = conditions: Subchronic oral toxicity in rodents, sprague dawley, Feed, dose end: 13 week, group: systemic, systemic / organ weight / uterus / relative to body weight
dog [20] = conditions: Subchronic oral toxicity in nonrodent, beagle, Feed, dose end: 14 week, group: systemic, systemic / organ weight / liver / absolute + systemic / organ weight / liver / relative to body weight
[21] = systemic / in life observation / body weight / body weight + systemic / in life observation / clinical signs / lacrimation + systemic / in …
[22] = systemic / organ weight / kidney / absolute + systemic / organ weight / liver / absolute + systemic / organ weight / spleen / absolute + …
[23] = systemic / in life observation / clinical signs / salivation + systemic / organ weight / liver / absolute + systemic / in life observation…
[24] = systemic / in life observation / body weight / body weight + systemic / in life observation / food consumption / food consumption + systemic…
[25] = systemic / in life observation / clinical signs / emesis
[26] = group: offspring, developmental / offspring survival late / viability index / viability index + developmental / developmental landmark / anogenital distance (…
[27] = group: parental, systemic / clinical chemistry / thyroxine (t4) / thyroxine (t4), total + systemic / organ weight / kidney / absolute + systemic / organ …
[28] = group: parental, systemic / organ weight / liver / absolute + systemic / organ weight / liver / relative to body weight + systemic / organ weight / kidney / …
[29] = systemic / in life observation / body weight / body weight gain
[30] = systemic / organ weight / liver / relative to body weight
[31] = systemic / pathology microscopic / lung / bronchiolization
[32] = systemic / pathology microscopic / kidney / hyaline droplet + systemic / pathology microscopic / kidney / pigmentation
[33] = group: offspring, systemic / in life observation / body weight / offspring (pup) weight + systemic / organ weight / brain / absolute + developmental / …
[34] = group: parental, systemic / in life observation / body weight / body weight + systemic / in life observation / clinical signs / drooping eyelids (ptosis) + …
[35] = group: parental, systemic / in life observation / clinical signs / salivation + systemic / organ weight / kidney / relative to body weight + systemic / organ…
[36] = group: reproductive, reproductive / reproductive performance / gestational length / gestational length + reproductive / reproductive performance / implantations…
[37] = group: reproductive, reproductive / reproductive performance / implantations / implantations
[38] = group: maternal, reproductive / reproductive performance / estrous cycle / abnormal
[39] = group: systemic, systemic / hematology / erythrocyte (rbc) count differential / erythrocyte (rbc) + systemic / hematology / hematocrit (hct) / hematocrit (…
[40] = group: systemic, systemic / pathology microscopic / kidney / nephropathy + systemic / pathology microscopic / spleen / congestion + systemic / pathology …
[41] = systemic / in life observation / body weight / body weight + reproductive / reproductive performance / mating / mating
[42] = systemic / in life observation / body weight / body weight + reproductive / reproductive performance / mating / mating + systemic / clinical…
[43] = systemic / in life observation / food consumption / food consumption + systemic / organ weight / liver / absolute + systemic / organ weight…
[44] = group: developmental, developmental / developmental malformation / bone / absent + developmental / developmental malformation / bone / fused + developmental / …
[45] = group: maternal, systemic / in life observation / body weight / body weight gain
[46] = group: maternal, systemic / in life observation / body weight / body weight gain + reproductive / reproductive performance / aborted / aborted + reproductive…
[47] = systemic / pathology microscopic / thyroid gland / mineralization
[48] = systemic / pathology microscopic / thyroid gland / mineralization + systemic / in life observation / body weight / body weight + systemic / …
[49] = group: offspring, systemic / in life observation / body weight / offspring (pup) weight
[50] = group: parental, systemic / in life observation / body weight / body weight gain
[51] = systemic / in life observation / body weight / body weight + systemic / in life observation / body weight / body weight gain + systemic / in…
[52] = group: developmental, developmental / developmental malformation / bone / wavy
[53] = group: maternal, systemic / in life observation / body weight / body weight gain + systemic / in life observation / food consumption / food consumption

CN[C@H]1CC[C@@H](c2ccc(Cl)c(Cl)c2)c2ccc(S(N)(=O)=O)cc21
LOAEL (rat [1]; [21]): > 320 mg/kg/day | NOAEL (rat [1]; [21]): ≥ 320 mg/kg/day | LEL (rat [1]; [22]): 40 mg/kg/day | NEL (rat [1]; [22]): < 40 mg/kg/day | LEL (dog [2]): 5 mg/kg/day | LOAEL (dog [2]): > 60 mg/kg/day | NEL (dog [2]): < 5 mg/kg/day | NOAEL (dog [2]): ≥ 60 mg/kg/day | NEL (rat [3]; systemic / in life observation / clinical signs / salivation + systemic / organ weight / liver / absolute): 20 mg/kg/day | LEL (rat [3]; [23]): 60 mg/kg/day | LOAEL (rat [3]; [23]): > 60 mg/kg/day | NOAEL (rat [3]; [23]): ≥ 60 mg/kg/day | LOAEL (dog [4]; [24]): > 160 mg/kg/day | NOAEL (dog [4]; [24]): ≥ 160 mg/kg/day | LEL (dog [4]; [25]): 40 mg/kg/day | NEL (dog [4]; [25]): 20 mg/kg/day

Cc1ccc([N+](=O)[O-])cc1 [4-Nitrotoluene]
LOAEL (rat [5]; [26]): 160 mg/kg/day | NEL (rat [5]; [26]): 40 mg/kg/day | NOAEL (rat [5]; group: offspring, developmental / offspring survival late / viability index / viability index + systemic / organ weight / brain / absolute): 80 mg/kg/day | LEL (rat [5]; group: offspring, systemic / organ weight / brain / absolute): 80 mg/kg/day | LOAEL (rat [5]; [27]): > 160 mg/kg/day | NOAEL (rat [5]; [27]): ≥ 160 mg/kg/day | LEL (rat [5]; [28]): 40 mg/kg/day | NEL (rat [5]; [28]): < 40 mg/kg/day | LOAEL (mouse [6]; [29]): 813 mg/kg/day | NOAEL (mouse [6]; systemic / in life observation / body weight / body weight gain + systemic / in life observation / food consumption / food consumption + …): 439 mg/kg/day | LEL (mouse [6]; [30]): 131 mg/kg/day | NEL (mouse [6]; [30]): < 131 mg/kg/day | LOAEL (mouse [7]; systemic / in life observation / body weight / body weight): 345 mg/kg/day | NOAEL (mouse [7]; systemic / in life observation / body weight / body weight + systemic / pathology microscopic / lung / adenoma/carcinoma combined + systemic…): 170 mg/kg/day | LEL (mouse [7]; [31]): 155 mg/kg/day | NEL (mouse [7]; [31]): < 155 mg/kg/day | LEL (rat [8]; [32]): 55 mg/kg/day | NEL (rat [8]; [32]): < 55 mg/kg/day | LOAEL (rat [8]; systemic / pathology microscopic / spleen / hematopoietic cell proliferation + systemic / pathology microscopic / spleen / pigmentation): 110 mg/kg/day | NOAEL (rat [8]; systemic / pathology microscopic / spleen / hematopoietic cell proliferation + systemic / pathology microscopic / spleen / pigmentation + …): 55 mg/kg/day | NEL (rat [9]; group: offspring, systemic / in life observation / body weight / offspring (pup) weight + developmental / offspring survival late / viability index / …): 40 mg/kg/day | LEL (rat [9]; group: offspring, systemic / in life observation / body weight / offspring (pup) weight + systemic / organ weight / brain / absolute): 80 mg/kg/day | LOAEL (rat [9]; [33]): > 160 mg/kg/day | NOAEL (rat [9]; [33]): ≥ 160 mg/kg/day | LOAEL (rat [9]; [34]): > 160 mg/kg/day | NOAEL (rat [9]; [34]): ≥ 160 mg/kg/day | LEL (rat [9]; [35]): 40 mg/kg/day | NEL (rat [9]; [35]): < 40 mg/kg/day | LOAEL (rat [9]; [36]): > 160 mg/kg/day | NOAEL (rat [9]; [36]): ≥ 160 mg/kg/day | LEL (rat [9]; [37]): 40 mg/kg/day | NEL (rat [9]; [37]): < 40 mg/kg/day | LEL (rat [10]; [38]): 680 mg/kg/day | LOAEL (rat [10]; [38]): > 680 mg/kg/day | NEL (rat [10]; [38]): 335 mg/kg/day | NOAEL (rat [10]; [38]): ≥ 680 mg/kg/day | LOAEL (rat [10]; [39]): 335 mg/kg/day | NOAEL (rat [10]; [39]): 164 mg/kg/day | LEL (rat [10]; [40]): 42 mg/kg/day | NEL (rat [10]; [40]): < 42 mg/kg/day

ClC1=C(Cl)C2(Cl)C3C(Cl)C(Cl)CC3C1(Cl)C2(Cl)Cl (configuration not stated) [Chlordane, technical grade]
LEL (rat [11]; [41]): 0.1 mg/kg/day | NEL (rat [11]; [41]): < 0.1 mg/kg/day | LOAEL (rat [11]; [42]): > 5 mg/kg/day | NOAEL (rat [11]; [42]): ≥ 5 mg/kg/day | LEL (rat [12]): 0.045 mg/kg/day | LOAEL (rat [12]): 0.045 mg/kg/day | NEL (rat [12]): < 0.045 mg/kg/day | NOAEL (rat [12]): < 0.045 mg/kg/day | LEL (mouse [13]; [43]): 0.15 mg/kg/day | NEL (mouse [13]; [43]): < 0.15 mg/kg/day | NOAEL (mouse [13]; systemic / pathology microscopic / liver / degeneration + systemic / in life observation / food consumption / food consumption + systemic / …): 0.15 mg/kg/day | LOAEL (mouse [13]; systemic / pathology microscopic / liver / degeneration + systemic / pathology microscopic / liver / necrosis): 0.75 mg/kg/day

O=[N+]([O-])/N=C1\NCCN1Cc1ccc(Cl)nc1 [Imidacloprid]
LEL (rabbit; [44]): 72 mg/kg/day | LOAEL (rabbit; [44]): 72 mg/kg/day | NEL (rabbit; [44]): 24 mg/kg/day | NOAEL (rabbit; [44]): 24 mg/kg/day | LEL (rabbit; [45]): 24 mg/kg/day | NEL (rabbit; [46]): 8 mg/kg/day | NOAEL (rabbit; [46]): 24 mg/kg/day | LOAEL (rabbit; group: maternal, systemic / in life observation / body weight / body weight gain + reproductive / reproductive performance / postimplantation loss / …): 72 mg/kg/day | LEL (rat [14]; [47]): 16.9 mg/kg/day | LOAEL (rat [14]; [47]): 16.9 mg/kg/day | NEL (rat [14]; [48]): 5.7 mg/kg/day | NOAEL (rat [14]; [48]): 5.7 mg/kg/day | LEL (rat [15]; [49]): 47.3 mg/kg/day | LOAEL (rat [15]; [49]): 47.3 mg/kg/day | NEL (rat [15]; [49]): 16.5 mg/kg/day | NOAEL (rat [15]; [49]): 16.5 mg/kg/day | LEL (rat [15]; [50]): 52.3 mg/kg/day | LOAEL (rat [15]; [50]): 52.3 mg/kg/day | NEL (rat [15]; [50]): 18.9 mg/kg/day | NOAEL (rat [15]; [50]): 18.9 mg/kg/day | LEL (dog [16]): 72 mg/kg/day | LOAEL (dog [16]): > 72 mg/kg/day | NEL (dog [16]): 15 mg/kg/day | NOAEL (dog [16]): ≥ 72 mg/kg/day | LOAEL (mouse [17]; [51]): 414 mg/kg/day | NEL (mouse [17]; [51]): 66 mg/kg/day | NOAEL (mouse [17]; [51]): 208 mg/kg/day | LEL (mouse [17]; [29]): 208 mg/kg/day | LEL (rat [18]; [52]): 100 mg/kg/day | LOAEL (rat [18]; [52]): 100 mg/kg/day | NEL (rat [18]; [52]): 30 mg/kg/day | NOAEL (rat [18]; [52]): 30 mg/kg/day | LEL (rat [18]; [45]): 30 mg/kg/day | LOAEL (rat [18]; [45]): 30 mg/kg/day | NEL (rat [18]; [53]): 10 mg/kg/day | NOAEL (rat [18]; [53]): 10 mg/kg/day

CCN(CC)C(=O)C(C)Oc1cccc2ccccc12 (configuration not stated) [Napropamide]
LEL (rat [19]): 50 mg/kg/day | LOAEL (rat [19]): 50 mg/kg/day | NEL (rat [19]): 25 mg/kg/day | NOAEL (rat [19]): 25 mg/kg/day | LEL (dog [20]): 100 mg/kg/day | LOAEL (dog [20]): 100 mg/kg/day | NEL (dog [20]): 40 mg/kg/day | NOAEL (dog [20]): 40 mg/kg/day
